Source: US20090156518A1, “STABLE PHARMACEUTICAL COMPOSITION COMPRISING BETA-LACTAM ANTIBIOTIC AND BUFFER” (priority 2006, published 2009)

Assay: amounts of β-lactam antibiotic, β-lactamase inhibitor (C18 reverse-phase LC, UV-VIS) and aminoglycoside (HPLC-ELSD) in solution over time
Assay type: physicochemical
Protocol: The amounts of β-lactam antibiotics and β-lactamase inhibitor were determined using C18 reverse-phase LC and UV-VIS detector (Tianjin Hemay BioTech Co., Ltd., analysis method No. HM-K-03). The content of aminoglycoside antibiotics was measured using reverse-phase HPLC and evaporation-light-scattering detector (ELSD detector) (Tianjin Hemay BioTech Co., Ltd., analysis method No. HM-K-08). The amount of antibiotic component at each time point was expressed as a percentage with respect to the amount at the initial time (herein defined as 100%). The relative amount of each antibiotic component in the composition at each time point was expressed as peak area ratio with respect to the corresponding peak area of an external standard.

With `CC1(C)S[C@@H]2[C@H](NC(=O)[C@H](NC(=O)N3CCN(S(C)(=O)=O)C3=O)c3ccccc3)C(=O)N2[C@H]1C(=O)O` [Mezlocillin sodium] the “amount of component as percentage with respect to the amount at the initial time” value (“amount of component as percentage” below) (Example 10: mezlocillin sodium 2 g, sulbactam sodium 0.5 g, etimicin sulfate 200 mg, citrate pH 6.5, 200 mL water, room temperature, Time 0 h) was 96.48%, the “amount of component as percentage” value (Example 10: mezlocillin sodium 2 g, sulbactam sodium 0.5 g, etimicin sulfate 200 mg, citrate pH 6.5, 200 mL water, room temperature, Time 1 h) was 95.90% and the “amount of component as percentage” value (Example 10: mezlocillin sodium 2 g, sulbactam sodium 0.5 g, etimicin sulfate 200 mg, citrate pH 6.5, 200 mL water, room temperature, Time 2 h) was 71.70%. The “amount of component as percentage” value (Example 10: mezlocillin sodium 2 g, sulbactam sodium 0.5 g, etimicin sulfate 200 mg, citrate pH 6.5, 200 mL water, room temperature, Time 4 h) was 91.78%, the “amount of component as percentage” value (Example 10: mezlocillin sodium 2 g, sulbactam sodium 0.5 g, etimicin sulfate 200 mg, citrate pH 6.5, 200 mL water, room temperature, Time 6 h) was 93.08% and the “amount of component as percentage” value (Example 10: mezlocillin sodium 2 g, sulbactam sodium 0.5 g, etimicin sulfate 200 mg, citrate pH 6.5, 200 mL water, room temperature, Time 8 h) was 97.69%. The “amount of component as percentage” value (Example 11: freeze-dried mezlocillin sodium, sulbactam sodium, citrate pH 6.5, 7 days 0° C., in 100 mL 5% fructose + etimicin sulfate 200 mg, Time 0 h) was 116.6%, the “amount of component as percentage” value (Example 11: freeze-dried mezlocillin sodium, sulbactam sodium, citrate pH 6.5, 7 days 0° C., in 100 mL 5% fructose + etimicin sulfate 200 mg, Time 1 h) was 94.83% and the “amount of component as percentage” value (Example 11: freeze-dried mezlocillin sodium, sulbactam sodium, citrate pH 6.5, 7 days 0° C., in 100 mL 5% fructose + etimicin sulfate 200 mg, Time 2 h) was 91.86%. The “amount of component as percentage” value (Example 11: freeze-dried mezlocillin sodium, sulbactam sodium, citrate pH 6.5, 7 days 0° C., in 100 mL 5% fructose + etimicin sulfate 200 mg, Time 4 h) was 91.96%, the “amount of component as percentage” value (Example 11: freeze-dried mezlocillin sodium, sulbactam sodium, citrate pH 6.5, 7 days 0° C., in 100 mL 5% fructose + etimicin sulfate 200 mg, Time 6 h) was 91.52% and the “amount of component as percentage” value (Example 11: freeze-dried mezlocillin sodium, sulbactam sodium, citrate pH 6.5, 7 days 0° C., in 100 mL 5% fructose + etimicin sulfate 200 mg, Time 8 h) was 98.56%. The “amount of component as percentage” value (Example 13: freeze-dried mezlocillin sodium, citrate pH 6, 7 days 0° C., in 100 mL 5% fructose + etimicin sulfate 200 mg, Time 0 h) was 95.05%, the “amount of component as percentage” value (Example 13: freeze-dried mezlocillin sodium, citrate pH 6, 7 days 0° C., in 100 mL 5% fructose + etimicin sulfate 200 mg, Time 1 h) was 96.63% and the “amount of component as percentage” value (Example 13: freeze-dried mezlocillin sodium, citrate pH 6, 7 days 0° C., in 100 mL 5% fructose + etimicin sulfate 200 mg, Time 2 h) was 89.33%. The “amount of component as percentage” value (Example 13: freeze-dried mezlocillin sodium, citrate pH 6, 7 days 0° C., in 100 mL 5% fructose + etimicin sulfate 200 mg, Time 4 h) was 98.72%, the “amount of component as percentage” value (Example 13: freeze-dried mezlocillin sodium, citrate pH 6, 7 days 0° C., in 100 mL 5% fructose + etimicin sulfate 200 mg, Time 6 h) was 92.73% and the “amount of component as percentage” value (Example 13: freeze-dried mezlocillin sodium, citrate pH 6, 7 days 0° C., in 100 mL 5% fructose + etimicin sulfate 200 mg, Time 8 h) was 92.51%.
